# Results: patent US20190137482A1, “HIGH THROUGHPUT SCREENING OF AGENTS ON DOPAMINERGIC NEURONS” (Cell Cure Neurosciences Ltd., priority 2013, published 2019)
# What was measured:
# mature DA neurons = assay: TH expression in mature DA neurons after toxin exposure; format: cell-based, human
# Description: For staining, cells on the coverslips were blocked in 5% normal goat/donkey serum (NGS) for 1 hour at room temperature. The anti TH antibody was diluted 1:100 or 1:1000 in 1% normal donkey/goat serum (NGS) and applied for 1 hour at room temperature. The antibodies that was employed were rabbit anti-human TH polyclonal antibody or mouse anti-human TH monoclonal antibody, Cat No. p40101, purchased from Pel-freez, or Cat No. T1299 purchased from Sigma and rabbit anti hu Nurr1 ab AB5778 (Millipore 10 ug/ml) or mouse igG anti NurrI (millipore, 1:200 or 1:1000), Rabbit Anti DAT AB5802 (Millipore, 1:500-1:1000). Following three washes in PBS, swine-anti rabbit FITC or goat anti mouse Cy-3-antibody diluted 1:50 or 1:500 in 1% normal goat serum (NGS) was applied for 1 hour at room temperature. Cells were washed in PBS, fixed with 4% PFA and mounted in the presence of the nuclear counterstain DAPI for immunofluoresecent microscopic examination.
# (§1) An additional experiment compared the effect of 100 nM 6-OH dopamine with 200 nM 6-OH dopamine. As illustrated in FIGS. 10A-10B, after addition of 200 nM 6-OH-dopamine to mature DA neurons the fluorescence levels of dansylD1 was decreased (green) and also the percentage of cells expressing TH (DA neuron marker) declined to 1-2% (FIGS. 10C and D).
# dopaminergic neurons = assay: DansylD1 fluorescence in dopaminergic neurons after toxin exposure; format: cell-based, human; settings: for DansylD1 fluorescence levels by micro-plate reader: 2 week differentiated live mature DA neurons, different toxin concentrations, 1 day, DansylD1 added again, FIG. 11
# Description: For Binding and uptake of the fluorescent ligand, 500-1000 nM of DansylD1™ (Five Photon Biochemicals™, Lot#81672) was administrated to the seeded cells after 2 weeks of differentiation on the coverslips or on 12/24 wells plastic plates for 10-15 minutes in 37° C. DansylD1 functions as the dopamine neurotransmitter in binding to the D2 dopamine receptor on Dopaminergic and GABAergic neurons and uptake through the dopamine transporter (DAT) by dopaminergic neurons. 50 nM of the D2 dopamine receptor antagonist—Sulpiride (sigma S112, Lot#108H4745) or 5 nM of the dopamine transporter (DAT) blocker—GBR (Sigma G9659, Lot#086K4104), were added for 10 minutes to the seeded cells in order to reduce the binding to non-dopaminergic neurons or to block the specific DansylD1 uptake respectively. Uptake levels of the dansylD1 fluorescent ligand molecule were detected and analyzed by fluorescence microscope and a fluorescence micro-plate reader (Bioteck, 333/515 nm). Acquisition and analysis was performed using Magelan software and Microsoft Excel.
# Dopaminergic neurons were fluorescently labeled with Dansyl D1. Increasing levels of 6-OH dopamine (50 nM and 100 nM) were added to the dopaminergic neurons and following 1 day of culture, the neurons were contacted again with Dansyl D1. The cells were rinsed and then the amount of fluorescence was analyzed.
# as §1
# (§2) Dansyl D1 was added to 2 week differentiated live mature DA neurons and the fluorescence levels quantified by fluorescence micro-plate reader. Later the cells were washed and different 6-OH-dopamine concentrations were added. After a day, dansylD1 was added again and the fluorescent levels measured once again.
# PC12 cells = assay: DansylD1 uptake calibration in PC-12 cells (fluorescence microscope); format: cell-based; settings: 500 nM DansylD1, dopamine as competitive inhibitor, GBR as dopamine transporter blocker, FIGS. 3A-3D
# Description: (§3) For Binding and uptake of the fluorescent ligand, 500-1000 nM of DansylD1™ (Five Photon Biochemicals™, Lot#81672) was administrated to the seeded cells after 2 weeks of differentiation on the coverslips or on 12/24 wells plastic plates for 10-15 minutes in 37° C. […] Uptake levels of the dansylD1 fluorescent ligand molecule were detected and analyzed by fluorescence microscope and a fluorescence micro-plate reader (Bioteck, 333/515 nm). Acquisition and analysis was performed using Magelan software and Microsoft Excel.
# [1] = system: hESC-derived dopaminergic neurons; assay: DansylD1 labeling and uptake in hESC-derived dopaminergic neurons; format: cell-based, human; settings: for DansylD1 fluorescence level: hESC-derived dopaminergic neurons after 26 days of differentiation, agent present in the medium, FIGS. 6A-6D
# Description: In order to direct the differentiation of hESCs into DA neurons, the cells were first directed to become neural progenitors within free-floating spheres (2 weeks) in the presence of the dual SMAD inhibitors (LDN193189+SB431542), FGF8, Purmorphamine and CHIR. They were further directed to differentiate into DA progenitors (7 days) as adherent cultures on laminin/fibronectin in the presence of FGF8, Purmorphamine and CHIR. Finally, they were differentiated into mature DA neurons (7 days) in the presence of the following factors (BDNF, NT4, AA, db-cAMP, TGFbeta3, GDNF and DAPT). The relevant factors/mitogens were replaced every 2-3 days.
# as §3
# The neuronal culture was incubated in the presence of the D2 antagonist Sulpiride.
# DA neurons = assay: Protection of DA neurons from the toxin 6-OH dopamine; format: cell-based, human; settings: cells over-expressing GDNF; FIG. 12
# Description: as §2
# [2] = 200 nM toxin, mature DA neurons
molecule,measurement,setting,value
NCCc1cc(O)c(O)cc1O [6-OH-dopamine],TH positive cells,mature DA neurons; 100 nM toxin,only minor reduction
same,percentage of cells expressing TH,mature DA neurons; [2],1-2%
same,amount of Dansyl D1 fluorescence in dopaminergic cells,"dopaminergic neurons; 50 nM and 100 nM toxin, 1 day of culture, relabeled with Dansyl D1, FIGS. 10A-10C",reduced
same,Dansyl-D1 uptake,dopaminergic neurons; 100 nM toxin,significant decrease
same,fluorescence levels of dansylD1,dopaminergic neurons; [2],decreased
same,DansylD1 fluorescence levels by micro-plate reader,dopaminergic neurons,decreased by half
same,DansylD1 fluorescence levels by micro-plate reader,dopaminergic neurons; listed as 6-OH dopamine,reduced in correlation with the amount of toxin
Cl.Cl.Fc1ccc(C(OCCN2CCN(CCCc3ccccc3)CC2)c2ccc(F)cc2)cc1 [GBR],amount of DansylD1 fluorescence in the cells,PC12 cells,decreased the amount of fluorescence
same,DansylD1 fluorescence level,[1],caused the fluorescence level to decline
NCCc1ccc(O)c(O)c1 [dopamine],amount of DansylD1 fluorescence in the cells,PC12 cells,decreased the amount of fluorescence
same,DansylD1 fluorescence level,[1],caused the fluorescence level to decline
CCN1CCCC1CNC(=O)c1cc(S(N)(=O)=O)ccc1OC (stereo not shown) [sulpiride],DansylD1 signal from the cells surface,"[1]; neuronal culture incubated with the D2 antagonist, fluorescent vesicles appear, FIGS. 8A-8B",less signal from the cells surface
"GDNF: neurotrophic factor over-expressed by cells that protected DA neurons from the toxin (protein, UniProt P39905 78-211, looked up) Glial cell line-derived …: SPDKQMAVLPRRERNRQAAAANPENSRGKGRRGQRGKNRGCVLTAIHLNVTDLGLGYETKEELIFRYCSGSCDAAETTYDKILKNLSRNRRLVSDKVGQACCRPIAFDDDLSFLDDNLVYHILRKHSAKRCGCI",protection of neurons from the toxin 6-OH dopamine,DA neurons,protected
